Measured values: patent US20230159532A1, “PARATHYROID HORMONE (PTH) RECEPTOR ANTAGONISTS AND USES THEREOF” (Crinetics Pharmaceuticals, Inc., priority 2021, published 2023)

What follows are compounds tested against T1, human PTHR1 receptor (Homo sapiens, UniProt Q03431) (assay: Competitive antagonist binding assay for hPTH-R1 (radioactive competition binding, SPA beads)). Details: human PTHR1 membranes, [125I]-[Nle8,18,Tyr34]-PTH(1-34) 0.2 nM, 90 minutes at room temperature; read-out: hPTHR1 Ki.
T1 construct: purchased Eurofins HTS030M
T1 sequence (Q03431 27-593): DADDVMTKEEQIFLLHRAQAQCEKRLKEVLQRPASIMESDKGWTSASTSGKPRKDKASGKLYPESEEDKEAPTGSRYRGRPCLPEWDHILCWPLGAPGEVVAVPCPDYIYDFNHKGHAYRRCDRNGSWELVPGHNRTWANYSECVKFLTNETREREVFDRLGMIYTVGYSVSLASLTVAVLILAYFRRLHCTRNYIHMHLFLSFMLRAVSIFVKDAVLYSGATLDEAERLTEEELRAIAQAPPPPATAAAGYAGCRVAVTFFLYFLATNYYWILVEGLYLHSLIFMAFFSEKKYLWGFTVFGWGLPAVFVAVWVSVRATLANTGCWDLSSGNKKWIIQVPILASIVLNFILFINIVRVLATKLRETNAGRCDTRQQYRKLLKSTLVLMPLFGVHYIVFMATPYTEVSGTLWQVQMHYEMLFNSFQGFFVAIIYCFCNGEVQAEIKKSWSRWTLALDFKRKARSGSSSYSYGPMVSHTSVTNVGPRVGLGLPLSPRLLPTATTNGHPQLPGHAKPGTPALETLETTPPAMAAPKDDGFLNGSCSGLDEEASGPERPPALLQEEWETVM
Procedure, shortened: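 Displacement of 0.2 nM radioiodinated [Nle8,18,Tyr34]-PTH(1-34) from membrane-bound human PTHR1 measured by scintillation proximity after 90 min at room temperature. Compounds typically 0-10,000 nM final, pH 7.4 HEPES/Mg/Ca buffer with BSA and detergent. Ki calculated from competition data.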

Ki [nM]	Compound
< 100	CCN1C(=O)N(c2ccc(NCCNC)cc2)c2cc(Cl)ccc2-c2cc(Cl)cnc21 [2-3, 4,13-dichloro-8-ethyl-10-(4-{[2-(methylamino)ethyl]amino}phenyl)-6,8,10-triazatricyclo[9.4.0.0^2,7]pentadeca-1(11),2(7),3,5,12,14-hexaen-9-one]
< 100	CCN1C(=O)N(c2c(F)cc(NCCNC3CCOCC3)cc2F)c2cc(Cl)ccc2-c2cc(Cl)cnc21 [1-12, 4,13-dichloro-10-[2,6-difluoro-4-({2-[(oxan-4-yl)amino]ethyl}amino)phenyl]-8-ethyl-6,8,10-triazatricyclo[9.4.0.0^2,7]pentadeca-1(11),2(7),3,5,12,14-hexaen-9-one]
< 100	CNCCNc1cc(F)c(N2C(=O)N(CC(F)(F)F)c3ncc(Cl)cc3-c3ccc(Cl)cc32)c(F)c1 [1-45, 4,13-dichloro-10-(2,6-difluoro-4-{[2-(methylamino)ethyl]amino}phenyl)-8-(2,2,2-trifluoroethyl)-6,8,10-triazatricyclo[9.4.0.0^2,7]pentadeca-1(11),2(7),3,5,12,14-hexaen-9-one]
< 100	CNCCNc1cc(F)c(N2C(=O)N(C)c3ncc(F)cc3-c3c(C)cc(C#N)cc32)c(F)c1 [1-111, 10-(2,6-difluoro-4-{[2-(methylamino)ethyl]amino}phenyl)-4-fluoro-8,15-dimethyl-9-oxo-6,8,10-triazatricyclo[9.4.0.0^2,7]pentadeca-1(11),2(7),3,5,12,14-hexaene-13-carbonitrile]
< 100	CCN1C(=O)N(c2c(F)cc(NCCNCCF)cc2F)c2cc(Cl)ccc2-c2cc(Cl)cnc21 [1-59, 4,13-dichloro-10-[2,6-difluoro-4-({2-[(2-fluoroethyl)amino]ethyl}amino)phenyl]-8-ethyl-6,8,10-triazatricyclo[9.4.0.0^2,7]pentadeca-1(11),2(7),3,5,12,14-hexaen-9-one]
< 100	CCN1C(=O)N(c2c(F)cc(NCCNCCNS(C)(=O)=O)cc2F)c2cc(C#N)ccc2-c2cc(Cl)cnc21 [1-150, N-[2-({2-[(4-{4-chloro-13-cyano-8-ethyl-9-oxo-6,8,10-triazatricyclo[9.4.0.0^2,7]pentadeca-1(11),2(7),3,5,12,14-hexaen-10-yl}-3,5-difluorophenyl)amino]ethyl}amino)ethyl]methanesulfonamide]
< 100	CCN1C(=O)N(c2c(F)cc(NCCNCC(N)=O)cc2F)c2cc(C#N)ccc2-c2cc(Cl)cnc21 [1-162, 2-({2-[(4-{4-chloro-13-cyano-8-ethyl-9-oxo-6,8,10-triazatricyclo[9.4.0.0^2,7]pentadeca-1(11),2(7),3,5,12,14-hexaen-10-yl}-3,5-difluorophenyl)amino]ethyl}amino)acetamide]
< 100	CC(C)N1C(=O)N(c2c(F)cc(NCCNCCCC(=O)O)cc2F)c2cc(C#N)ccc2-c2cc(F)cnc21 [1-86, 4-{[2-({4-[13-cyano-4-fluoro-9-oxo-8-(propan-2-yl)-6,8,10-triazatricyclo[9.4.0.0^2,7]pentadeca-1(11),2(7),3,5,12,14-hexaen-10-yl]-3,5-difluorophenyl}amino)ethyl]amino}butanoic acid]
< 100	CCN1C(=O)N(c2c(F)cc(NCCNC)cc2F)c2cc(Cl)cc(C)c2-c2cccnc21 [1-23, 13-chloro-10-(2,6-difluoro-4-{[2-(methylamino)ethyl]amino}phenyl)-8-ethyl-15-methyl-6,8,10-triazatricyclo[9.4.0.0^2,7]pentadeca-1(11),2(7),3,5,12,14-hexaen-9-one]
< 100	CCN1C(=O)N(c2c(F)cc(NCCNCCCC(=O)O)cc2F)c2cc(C#N)ccc2-c2cc(Cl)cnc21 [1-58, 4-({2-[(4-{4-chloro-13-cyano-8-ethyl-9-oxo-6,8,10-triazatricyclo[9.4.0.0^2,7]pentadeca-1(11),2(7),3,5,12,14-hexaen-10-yl}-3,5-difluorophenyl)amino]ethyl}amino)butanoic Acid]
< 100	CCN1C(=O)N(c2c(F)cc(N[C@@H](C)CNCCO)cc2F)c2cc(Cl)ccc2-c2cc(Cl)cnc21 [1-71, 4,13-dichloro-10-(2,6-difluoro-4-{[(2S)-1-[(2-hydroxyethyl)amino]propan-2-yl]amino}phenyl)-8-ethyl-6,8,10-triazatricyclo[9.4.0.0^2,7]pentadeca-1(11),2(7),3,5,12,14-hexaen-9-one]
< 100	CCN1C(=O)N(c2c(F)cc(NCCN[C@@H](CC(C)C)C(=O)O)cc2F)c2cc(C#N)ccc2-c2cc(Cl)cnc21 [1-240, (2S)-2-({2-[(4-{4-chloro-13-cyano-8-ethyl-9-oxo-6,8,10-triazatricyclo[l9.4.0.0^2,7]pentadeca-1(11),2(7),3,5,12,14-hexaen-10-yl}-3,5-difluorophenyl)amino]ethyl}amino)-4-methylpentanoic acid]
< 100	CCN1C(=O)N(c2c(F)cc(NCCNC3CCOCC3)cc2F)c2cc(Cl)ccc2-c2cc(C)cnc21 [1-27, 13-chloro-10-[2,6-difluoro-4-({2-[(oxan-4-yl)amino]ethyl}amino)phenyl]-8-ethyl-4-methyl-6,8,10-triazatricyclo[9.4.0.0^2,7]pentadeca-1(11),2(7),3,5,12,14-hexaen-9-one]
< 100	CCN1C(=O)N(c2ccc(NCCNC3CCOCC3)cc2)c2cc(Cl)ccc2-c2cc(Cl)cnc21 [2-13, 4,13-dichloro-8-ethyl-10-[4-({2-[(oxan-4-yl)amino]ethyl}amino)phenyl]-6,8,10-triazatricyclo[9.4.0.0^2,7]pentadeca-1(11),2(7),3,5,12,14-hexaen-9-one]
< 100	CCCN1C(=O)N(c2c(F)cc(NCCNCCO)cc2F)c2cc(C#N)ccc2-c2cc(Cl)cnc21 [1-120, 4-chloro-10-[2,6-difluoro-4-({2-[(2-hydroxyethyl)amino]ethyl}amino)phenyl]-9-oxo-8-propyl-6,8,10-triazatricyclo[9.4.0.0^2,7]pentadeca-1(11),2(7),3,5,12,14-hexaene-13-carbonitrile]
< 100	[2-({2-[(4-{13-cyano-8-ethyl-4-fluoro-9-oxo-6,8,10-triazatricyclo[9.4.0.0^2,7]pentadeca-1(11),2(7),3,5,12,14-hexaen-10-yl}-3,5-difluorophenyl)amino]ethyl}amino)ethyl]urea [1-169]
< 100	CCN1C(=O)N(c2c(F)cc(NCCNCCCS(=O)(=O)O)cc2F)c2cc(C#N)ccc2-c2cc(F)cnc21 [1-221, 3-({2-[(4-{13-cyano-8-ethyl-4-fluoro-9-oxo-6,8,10-triazatricyclo[9.4.0.0^2,7]pentadeca-1(11),2(7),3,5,12,14-hexaen-10-yl}-3,5-difluorophenyl)amino]ethyl}amino)propane-1-sulfonic acid]
< 100	CCN1C(=O)N(c2c(F)cc(NCCNC)cc2F)c2cc(Cl)cc(F)c2-c2cc(F)cnc21 [1-94, 13-chloro-10-(2,6-difluoro-4-{[2-(methylamino)ethyl]amino}phenyl)-8-ethyl-4,15-difluoro-6,8,10-triazatricyclo[9.4.0.0^2,7]pentadeca-1(11),2(7),3,5,12,14-hexaen-9-one]
< 100	CCN1C(=O)N(c2c(F)cc(NCCNCCNC(=O)NC)cc2F)c2cc(C#N)ccc2-c2cc(F)cnc21 [1-172, 1-[2-({2-[(4-{13-cyano-8-ethyl-4-fluoro-9-oxo-6,8,10-triazatricyclo[9.4.0.0^2,7]pentadeca-1(11),2(7),3,5,12,14-hexaen-10-yl}-3,5-difluorophenyl)amino]ethyl}amino)ethyl]-3-methylurea]
< 100	CCN1C(=O)N(c2c(F)cc(NCCNCCO)cc2F)c2c(ccc(Cl)c2F)-c2cc(Cl)cnc21 [3-10, 4,13-dichloro-10-[2,6-difluoro-4-({2-[(2-hydroxyethyl)amino]ethyl}amino)phenyl]-8-ethyl-12-fluoro-6,8,10-triazatricyclo[9.4.0.0^2,7]pentadeca-1(11),2(7),3,5,12,14-hexaen-9-one]
< 100	CCN1C(=O)N(c2c(F)cc(N3CC[C@H](N)C3)cc2F)c2cc(C#N)ccc2-c2cc(Cl)cnc21 [1-241, 10-{4-[(3 S)-3-aminopyrrolidin-1-yl]-2,6-difluorophenyl}-4-chloro-8-ethyl-9-oxo-6,8,10-triazatricyclo[9.4.0.0^2,7]pentadeca-1(11),2(7),3,5,12,14-hexaene-13-carbonitrile]
< 100	CCN1C(=O)N(c2c(F)cc(NCCNCCO)cc2F)c2cc(F)ccc2-c2cc(Cl)cnc21 [1-129, 4-chloro-10-[2,6-difluoro-4-({2-[(2-hydroxyethyl)amino]ethyl}amino)phenyl]-8-ethyl-13-fluoro-6,8,10-triazatricyclo[9.4.0.0^2,7]pentadeca-1(11),2(7),3,5,12,14-hexaen-9-one]
< 100	CCN1C(=O)N(c2c(F)cc(NCCNC)cc2F)c2cc(Cl)ccc2-c2cccnc21 [1-2, 13-chloro-10-(2,6-difluoro-4-{[2-(methylamino)ethyl]amino}phenyl)-8-ethyl-6,8,10-triazatricyclo[9.4.0.0^2,7]pentadeca-1(11),2(7),3,5,12,14-hexaen-9-one]
